Source: patent publication US11066481B2, “Antibodies to coagulation factor XIa and uses thereof” (THE REGENTS OF THE UNIVERSITY OF CALIFORNIA, priority 2015, dated 2021)

Legend:
[1] = test system: rabbit model of venous thromboembolism (VTE); assay: rabbit model of venous thromboembolism (VTE); type: in vivo
Source text: All procedures performed on these animals were in accordance with regulations and established guidelines and were reviewed and approved by an Institutional Animal Care and Use Committee or through an ethical review process. Rabbits were anesthetized according to established protocols. […] Furthermore, for the Rivaroxaban treated animals, the i.v. bolus injection was supplemented by a continuous i.v. infusion of Rivaroxaban to maintain proper dosing throughout the duration of the study due to short half-life concerns. For all treatment groups, 30 minutes after bolus injection, a sheath of the appropriate size was placed in the left femoral vein. Then a wire of approximately 14 cm with 8 strands of cotton thread attached to it (each 3 cm long) was inserted into the femoral vein. Fluoroscopy was used for guidance of the wire with the threads towards the target area in the vena cava. […] After 90 minutes the device was removed by surgical dissection, cut from the wire, and the clot-containing cotton threads were weighed after having been blotted dry. Prior to IgG dosing, and also prior to surgical removal of threads, a blood sample was drawn for preparation of serum (PK) and plasma (for PD biomarkers APTT and PT).

[2] = test system: rabbit cuticle bleeding; assay: rabbit cuticle bleeding study; type: in vivo; settings: 1.5 mg/kg i.v. bolus plus infusion
Procedure: All procedures performed on these animals were in accordance with regulations and established guidelines and were reviewed and approved by an Institutional Animal Care and Use Committee or through an ethical review process. Rabbits were anesthetized according to established protocols. After anesthesia and cannulation etc., both front paws were shaved to remove fur that would otherwise contaminate saline and wick it out of the tube. Pre dosing bleeds were performed on the middle digit of the left front paw. Post dosing bleeds were performed on the same digit on the right front paw. There were four dosing groups of 10 animals each. […] Furthermore, for the Rivaroxaban treated animals, the i.v. bolus injection was supplemented by a continuous i.v. infusion of Rivaroxaban to maintain proper dosing throughout the duration of the study due to short half-life concerns. Nails were transilluminated with white light to visualize the quick and cut with a razor blade so as to transect the cuticle approximately 1 mm proximal to the apex of the quick. The nail was then immediately immersed in a saline solution in 10×75 mm 3 ml polystyrene (clear) tube. The tube with saline was stored at 37° C. before the cut. The nail was kept in the solution and time to cessation of flow was measured. […] At the end of the blood collection the tube is capped and inverted 5 times and centrifuged at 200 to 250×g for 15 min. The blood cell pellet was resuspended in 3 mL erythrocyte lysis buffer (8.3 g/L NH4Cl, 1.0 g/LKHCO3, and 0.037 g/L EDTA in water). After at least 15 min of lysis time, hemoglobin (Hb) concentration was measured at OD 575 nm using a Spectrophotometer) and expressed as arbitrary absorbance units. As indicated above, baseline cuticle bleeding times were performed prior to dosing. […] 30 minutes later a second cuticle cut was made and bleeding times recorded and blood loss measured. […]

[3] = 1.5 mg/kg i.v. bolus plus continuous infusion

O=C(NC[C@H]1CN(c2ccc(N3CCOCC3=O)cc2)C(=O)O1)c1ccc(Cl)s1 [Rivaroxaban]
any read outs measured (thrombus weight, APTT, PT) ([1]; 0.045 mg/kg i.v. bolus plus continuous infusion): No effects | thrombus/clot weight [1, 3]: decreased thrombus/clot weight | time to clotting in APTT assay [1, 3]: prolonged time to clotting | time to clotting in PT assay [1, 3]: prolonged time to clotting | time to clotting in APTT coagulation assay [2]: significant prolongation in time to clotting | time to clotting in PT coagulation assay [2]: significant prolongation in time to clotting | total blood loss following cuticle cutting [2]: significantly increased total blood loss
